Results on four compounds are retold here after PubChem BioAssay (NCI).

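Results reflect a 48-hour exposure of cells in 96-well plates to compound at five concentrations. Abbreviation: GI50, concentration required for 50% inhibition of growth. TGI is the concentration that stops growth completely.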

In the first experiment the test system is HS 578T breast. Put plainly: NCI-60 cell line screen, 48 h.
Consider `O=C(O)CN1CCN(CC(=O)O)CC(=O)[O][Hg][O]C(=O)C1`, for which the GI50 was above 43.9 µM and the TGI is above 71.3 µM.

As for `O=C(OCc1ccc2ccccc2n1)c1cn(C2CC2)c2cc(N3CCN(Cc4ccc5ccccc5n4)CC3)c(F)cc2c1=O`, the GI50 is 40.6 µM and the TGI was above 100 µM.

`O=C(O)c1ccc(C(=O)c2ccccc2)c(C(=O)O)c1` came in with a TGI above 100 µM.

On to `Cc1ccc(/C=N\NC(=O)c2[nH]c3ccc(F)cc3c2-c2ccccc2)cc1`, for which the GI50 is 0.0375 µM.

The subject of the next experiment is SK-MEL-28 melanoma. Nature of the experiment: NCI-60 cell line screen, 48 h.
As to `O=C(O)CN1CCN(CC(=O)O)CC(=O)[O][Hg][O]C(=O)C1`, the GI50 was 19.2 µM and the TGI came to 34.8 µM.

As to `O=C(OCc1ccc2ccccc2n1)c1cn(C2CC2)c2cc(N3CCN(Cc4ccc5ccccc5n4)CC3)c(F)cc2c1=O`, the GI50 is 35.4 µM and the TGI was above 100 µM.

Turning to `O=C(O)c1ccc(C(=O)c2ccccc2)c(C(=O)O)c1`, the TGI was above 100 µM.

For the compound `Cc1ccc(/C=N\NC(=O)c2[nH]c3ccc(F)cc3c2-c2ccccc2)cc1`, the GI50 was 1.15 µM and the TGI was above 100 µM.

The next experiment deals with OVCAR-5 ovarian. Put plainly: NCI-60 cell line screen, 48 h.
On to `O=C(O)CN1CCN(CC(=O)O)CC(=O)[O][Hg][O]C(=O)C1`, for which the GI50 is 18.7 µM and the TGI is 38.5 µM.

With `O=C(OCc1ccc2ccccc2n1)c1cn(C2CC2)c2cc(N3CCN(Cc4ccc5ccccc5n4)CC3)c(F)cc2c1=O`, the GI50 is above 81.5 µM and the TGI is above 100 µM.

Turning to `O=C(O)c1ccc(C(=O)c2ccccc2)c(C(=O)O)c1`, the TGI was above 100 µM.

Regarding `Cc1ccc(/C=N\NC(=O)c2[nH]c3ccc(F)cc3c2-c2ccccc2)cc1`, the GI50 was 0.0591 µM and the TGI is above 100 µM.

The test system of a further experiment is HT29 colon. Nature of the experiment: NCI-60 cell line screen, 48 h.
As for `O=C(O)CN1CCN(CC(=O)O)CC(=O)[O][Hg][O]C(=O)C1`, the GI50 is 16 µM and the TGI was found to be 34.1 µM.

`O=C(OCc1ccc2ccccc2n1)c1cn(C2CC2)c2cc(N3CCN(Cc4ccc5ccccc5n4)CC3)c(F)cc2c1=O`: the GI50 was 58.2 µM and the TGI is above 100 µM.

Compound `O=C(O)c1ccc(C(=O)c2ccccc2)c(C(=O)O)c1` registered a TGI above 100 µM.

As for `Cc1ccc(/C=N\NC(=O)c2[nH]c3ccc(F)cc3c2-c2ccccc2)cc1`, the GI50 is 0.0291 µM and the TGI was 11.6 µM.

In a further experiment the test system is SF-295 CNS. Put plainly: NCI-60 cell line screen, 48 h.
As for `O=C(O)CN1CCN(CC(=O)O)CC(=O)[O][Hg][O]C(=O)C1`, the GI50 is above 100 µM and the TGI was above 100 µM.

For the compound `O=C(OCc1ccc2ccccc2n1)c1cn(C2CC2)c2cc(N3CCN(Cc4ccc5ccccc5n4)CC3)c(F)cc2c1=O`, the GI50 is 35.2 µM and the TGI was above 100 µM.

Turning to `O=C(O)c1ccc(C(=O)c2ccccc2)c(C(=O)O)c1`, the TGI is above 100 µM.

As to `Cc1ccc(/C=N\NC(=O)c2[nH]c3ccc(F)cc3c2-c2ccccc2)cc1`, the GI50 is 0.0266 µM and the TGI came out at 1.2 µM.

In the next experiment the test system is NCI-H460 lung. Nature of the experiment: NCI-60 cell line screen, 48 h.
Consider `O=C(O)CN1CCN(CC(=O)O)CC(=O)[O][Hg][O]C(=O)C1`, for which the GI50 was 19.8 µM and the TGI was above 54.2 µM.

For the compound `O=C(OCc1ccc2ccccc2n1)c1cn(C2CC2)c2cc(N3CCN(Cc4ccc5ccccc5n4)CC3)c(F)cc2c1=O`, the GI50 was 39.3 µM and the TGI was above 100 µM.

In the case of `O=C(O)c1ccc(C(=O)c2ccccc2)c(C(=O)O)c1`, the TGI is above 100 µM.

As to `Cc1ccc(/C=N\NC(=O)c2[nH]c3ccc(F)cc3c2-c2ccccc2)cc1`, the GI50 was 0.0345 µM and the TGI was above 37.9 µM.

The subject of the next experiment is MOLT-4 leukemia. Put plainly: NCI-60 cell line screen, 48 h.
For `O=C(O)CN1CCN(CC(=O)O)CC(=O)[O][Hg][O]C(=O)C1`, the GI50 was 9.02 µM and the TGI came to 31.9 µM.

On to `O=C(OCc1ccc2ccccc2n1)c1cn(C2CC2)c2cc(N3CCN(Cc4ccc5ccccc5n4)CC3)c(F)cc2c1=O`, for which the GI50 is above 100 µM and the TGI is above 100 µM.

On to `O=C(O)c1ccc(C(=O)c2ccccc2)c(C(=O)O)c1`, for which the TGI is above 100 µM.

As to `Cc1ccc(/C=N\NC(=O)c2[nH]c3ccc(F)cc3c2-c2ccccc2)cc1`, the GI50 was 0.0421 µM and the TGI was above 39.5 µM.

The next experiment relates to SK-MEL-2 melanoma. Nature of the experiment: NCI-60 cell line screen, 48 h.
With `O=C(O)CN1CCN(CC(=O)O)CC(=O)[O][Hg][O]C(=O)C1`, the GI50 was 15.5 µM and the TGI came to 29.6 µM.

With `O=C(OCc1ccc2ccccc2n1)c1cn(C2CC2)c2cc(N3CCN(Cc4ccc5ccccc5n4)CC3)c(F)cc2c1=O`, the GI50 is above 100 µM and the TGI was above 100 µM.

`O=C(O)c1ccc(C(=O)c2ccccc2)c(C(=O)O)c1` came in with a TGI above 100 µM.

`Cc1ccc(/C=N\NC(=O)c2[nH]c3ccc(F)cc3c2-c2ccccc2)cc1`: the GI50 was 0.0488 µM and the TGI turned out to be 24.5 µM.

In another experiment the test system is SN12C renal. Nature of the experiment: NCI-60 cell line screen, 48 h.
Turning to `O=C(O)CN1CCN(CC(=O)O)CC(=O)[O][Hg][O]C(=O)C1`, the GI50 was 18.5 µM and the TGI came out at 34.8 µM.

Regarding `O=C(OCc1ccc2ccccc2n1)c1cn(C2CC2)c2cc(N3CCN(Cc4ccc5ccccc5n4)CC3)c(F)cc2c1=O`, the GI50 was above 100 µM and the TGI was above 100 µM.

For `O=C(O)c1ccc(C(=O)c2ccccc2)c(C(=O)O)c1`, the TGI was above 100 µM.

For `Cc1ccc(/C=N\NC(=O)c2[nH]c3ccc(F)cc3c2-c2ccccc2)cc1`, the GI50 was 0.0436 µM and the TGI was above 100 µM.

For another experiment, the system named is SK-MEL-5 melanoma. Put plainly: NCI-60 cell line screen, 48 h.
On to `O=C(O)CN1CCN(CC(=O)O)CC(=O)[O][Hg][O]C(=O)C1`, for which the GI50 was 20.5 µM and the TGI is above 57 µM.

Take `O=C(OCc1ccc2ccccc2n1)c1cn(C2CC2)c2cc(N3CCN(Cc4ccc5ccccc5n4)CC3)c(F)cc2c1=O`: the GI50 is 20.1 µM and the TGI is 62.2 µM.

In turn, `O=C(O)c1ccc(C(=O)c2ccccc2)c(C(=O)O)c1` returned a TGI above 100 µM.

For `Cc1ccc(/C=N\NC(=O)c2[nH]c3ccc(F)cc3c2-c2ccccc2)cc1`, the GI50 was 0.0224 µM and the TGI was 0.0559 µM.
